Converted amounts (≈) assume the structure as drawn.
Assays:
[1] = Hemolytic activity in rabbit RBC incubated for 1 hr by microplate reader analysis; format: toxicity, cell-based, Oryctolagus cuniculus, Erythrocyte; conditions: rabbit red blood cells (erythrocytes)
Staphylococcus aureus [2] = assay: Antibacterial activity against methicillin resistant Staphylococcus aureus N315 assessed as inhibition of bacterial growth incubated for 24 hrs by microbroth dilution method; format: functional
Staphylococcus aureus [3] = assay: Antibacterial activity against Staphylococcus aureus ATCC 29213 assessed as inhibition of bacterial growth incubated for 24 hrs by microbroth dilution method; format: functional
Staphylococcus aureus [4] = assay: Antibacterial activity against methicillin resistant Staphylococcus aureus NCTC10442 assessed as inhibition of bacterial growth incubated for 24 hrs by microbroth dilution method; format: functional
[5] = test system: Staphylococcus epidermidis; assay: Antibacterial activity against Staphylococcus epidermidis CMCC26069 assessed as inhibition of bacterial growth incubated for 24 hrs by microbroth dilution method; format: functional
Bacillus subtilis = assay: Antibacterial activity against Bacillus subtilis CMCC63501 assessed as inhibition of bacterial growth incubated for 24 hrs by microbroth dilution method; format: functional
Staphylococcus aureus [6] = assay: Antibacterial activity against Staphylococcus aureus ATCC 15981 assessed as inhibition of bacterial growth incubated for 24 hrs by microbroth dilution method; format: functional
Enterococcus faecalis = assay: Antibacterial activity against Enterococcus faecalis ATCC 29212 assessed as inhibition of bacterial growth incubated for 24 hrs by microbroth dilution method; format: functional
[7] = test system: Staphylococcus epidermidis; assay: Antibacterial activity against Staphylococcus epidermidis ATCC 12228 assessed as inhibition of bacterial growth incubated for 24 hrs by microbroth dilution method; format: functional
Staphylococcus aureus [8] = assay: Induction of resistant development in Staphylococcus aureus ATCC 29213 assessed as fold increase in MIC at 0.5 MIC after 12 passages by resistant development assay; format: functional

SMILES: CC(C)(C)CC(C)(C)c1ccc(OCC(=O)N[C@@H](CCCNC(=N)N)C(N)=O)c(Sc2cc(C(C)(C)CC(C)(C)C)ccc2OCC(=O)N[C@@H](CCCNC(=N)N)C(N)=O)c1
- HC50 at 1 h [1]: 183 µg/mL
- MIC (Staphylococcus aureus [2]): 1.56 mg/L (≈ 1.79 µM)
- MIC (Staphylococcus aureus [3]): 3.12 mg/L (≈ 3.6 µM)
- MIC (Staphylococcus aureus [4]): 3.12 mg/L (≈ 3.6 µM)

SMILES: CC(C)(C)CC(C)(C)c1ccc(OCCCCNC(=N)N)c(Sc2cc(C(C)(C)CC(C)(C)C)ccc2OCCCCNC(=N)N)c1
- HC50 at 1 h [1]: > 200 µg/mL
- MIC (Staphylococcus aureus [2]): 3.12 mg/L (≈ 4.67 µM)
- MIC (Staphylococcus aureus [3]): 3.12 mg/L (≈ 4.67 µM)
- MIC (Staphylococcus aureus [4]): 3.12 mg/L (≈ 4.67 µM)

SMILES: CC(C)(C)CC(C)(C)c1ccc(OCCCCBr)c(Sc2cc(C(C)(C)CC(C)(C)C)ccc2OCCCCBr)c1
- HC50 at 1 h [1]: > 200 µg/mL
- MIC (Staphylococcus aureus [2]): > 50 mg/L
- MIC (Staphylococcus aureus [3]): > 50 mg/L
- MIC (Staphylococcus aureus [4]): > 50 mg/L

SMILES: COC(=O)[C@H](CCCNC(=N)N)NC(=O)COc1ccc(Cl)cc1Sc1cc(Cl)ccc1OCC(=O)N[C@@H](CCCNC(=N)N)C(=O)OC
- HC50 at 1 h [1]: > 200 µg/mL
- MIC (Staphylococcus aureus [2]): 12.5 mg/L (≈ 16.8 µM)
- MIC (Staphylococcus aureus [3]): 25 mg/L (≈ 33.6 µM)
- MIC (Staphylococcus aureus [4]): 12.5 mg/L (≈ 16.8 µM)

SMILES: CCCCN(CCCC)CCCCOc1ccc(C(C)(C)CC(C)(C)C)cc1Sc1cc(C(C)(C)CC(C)(C)C)ccc1OCCCCN(CCCC)CCCC
- HC50 at 1 h [1]: > 200 µg/mL
- MIC (Staphylococcus aureus [2]): > 50 mg/L
- MIC (Staphylococcus aureus [3]): > 50 mg/L
- MIC (Staphylococcus aureus [4]): > 50 mg/L

SMILES: Cc1cc(Sc2cc(C)cc(C(C)(C)C)c2OCC(=O)N[C@@H](CCCNC(=N)N)C(N)=O)c(OCC(=O)N[C@@H](CCCNC(=N)N)C(N)=O)c(C(C)(C)C)c1
- HC50 at 1 h [1]: > 200 µg/mL
- MIC (Staphylococcus aureus [2]): 12.5 mg/L (≈ 15.9 µM)
- MIC (Staphylococcus aureus [3]): 25 mg/L (≈ 31.8 µM)
- MIC (Staphylococcus aureus [4]): 12.5 mg/L (≈ 15.9 µM)

SMILES: CCOC(=O)COc1ccc(C(C)(C)CC(C)(C)C)cc1Sc1cc(C(C)(C)CC(C)(C)C)ccc1OCC(=O)OCC
- HC50 at 1 h [1]: > 200 µg/mL
- MIC (Staphylococcus aureus [2]): > 50 mg/L
- MIC (Staphylococcus aureus [3]): > 50 mg/L
- MIC (Staphylococcus aureus [4]): > 50 mg/L

SMILES: CN1CCN(CCCCOc2ccc(C(C)(C)CC(C)(C)C)cc2Sc2cc(C(C)(C)CC(C)(C)C)ccc2OCCCCN2CCN(C)CC2)CC1
- HC50 at 1 h [1]: > 200 µg/mL
- MIC (Staphylococcus aureus [2]): 12.5 mg/L (≈ 16.6 µM)
- MIC (Staphylococcus aureus [3]): 12.5 mg/L (≈ 16.6 µM)
- MIC (Staphylococcus aureus [4]): 12.5 mg/L (≈ 16.6 µM)

SMILES: COC(=O)[C@H](CCCNC(=N)N)NC(=O)[C@H](CCCNC(=N)N)NC(=O)[C@H](CCCNC(=N)N)NC(=O)COc1ccc(C(C)(C)CC(C)(C)C)cc1Sc1cc(C(C)(C)CC(C)(C)C)ccc1OCC(=O)N[C@@H](CCCNC(=N)N)C(=O)N[C@@H](CCCNC(=N)N)C(=O)N[C@@H](CCCNC(=N)N)C(=O)OC
- HC50 at 1 h [1]: > 200 µg/mL
- MIC (Staphylococcus aureus [2]): 6.25 mg/L (≈ 4.1 µM)
- MIC (Staphylococcus aureus [3]): 6.25 mg/L (≈ 4.1 µM)
- MIC (Staphylococcus aureus [4]): 3.12 mg/L (≈ 2.05 µM)

SMILES: COC(=O)[C@H](CCCNC(=N)N)NC(=O)COc1ccc(C(C)(C)CC(C)(C)C)cc1Sc1cc(C(C)(C)CC(C)(C)C)ccc1O
- HC50 at 1 h [1]: 130 µg/mL
- MIC (Staphylococcus aureus [2]): 3.12 mg/L (≈ 4.66 µM)
- MIC (Staphylococcus aureus [3]): 12.5 mg/L (≈ 18.6 µM)
- MIC (Staphylococcus aureus [4]): 1.56 mg/L (≈ 2.33 µM)

SMILES: CC(C)(C)CC(C)(C)c1ccc(OCCCCN2CCSCC2)c(Sc2cc(C(C)(C)CC(C)(C)C)ccc2OCCCCN2CCSCC2)c1
- HC50 at 1 h [1]: > 200 µg/mL
- MIC (Staphylococcus aureus [2]): > 50 mg/L
- MIC (Staphylococcus aureus [3]): > 50 mg/L
- MIC (Staphylococcus aureus [4]): > 50 mg/L

SMILES: COC(=O)[C@H](CCCNC(=N)N)NC(=O)[C@H](CCCNC(=N)N)NC(=O)COc1c(Sc2cc(C)cc(C(C)(C)C)c2OCC(=O)N[C@@H](CCCNC(=N)N)C(=O)N[C@@H](CCCNC(=N)N)C(=O)OC)cc(C)cc1C(C)(C)C
- HC50 at 1 h [1]: > 200 µg/mL
- MIC (Staphylococcus aureus [2]): 1.56 mg/L (≈ 1.38 µM)
- MIC [5]: 0.78 mg/L (≈ 0.692 µM)
- MIC (Bacillus subtilis): 0.78 mg/L (≈ 0.692 µM)
- MIC (Staphylococcus aureus [6]): 1.56 mg/L (≈ 1.38 µM)
- MIC (Enterococcus faecalis): 25 mg/L (≈ 22.2 µM)
- MIC (Staphylococcus aureus [3]): 1.56 mg/L (≈ 1.38 µM)
- MIC [7]: 0.78 mg/L (≈ 0.692 µM)
- MIC (Staphylococcus aureus [4]): 1.56 mg/L (≈ 1.38 µM)

SMILES: CCn1cc(C(=O)O)c(=O)c2cc(F)c(N3CCNCC3)cc21
- fold change (FC) (Staphylococcus aureus [8]): 32

SMILES: CCN(CC)CCCCOc1ccc(C(C)(C)CC(C)(C)C)cc1Sc1cc(C(C)(C)CC(C)(C)C)ccc1OCCCCN(CC)CC
- HC50 at 1 h [1]: 67.9 µg/mL
- MIC (Staphylococcus aureus [2]): 1.56 mg/L (≈ 2.24 µM)
- MIC (Staphylococcus aureus [3]): 3.12 mg/L (≈ 4.48 µM)
- MIC (Staphylococcus aureus [4]): 3.12 mg/L (≈ 4.48 µM)

SMILES: CC(C)(C)CC(C)(C)c1ccc(O)c(Sc2cc(C(C)(C)CC(C)(C)C)ccc2O)c1
- HC50 at 1 h [1]: > 200 µg/mL
- MIC (Staphylococcus aureus [2]): > 50 mg/L
- MIC (Staphylococcus aureus [3]): > 50 mg/L
- MIC (Staphylococcus aureus [4]): > 50 mg/L

— ChEMBL document CHEMBL5108078, “Design and Synthesis of Phenyl Sulfide-Based Cationic Amphiphiles as Membrane-Targeting Antimicrobial Agents against Gram-Positive Pathogens” (J Med Chem, 2022)
